# Laboratory results taken from patent US9549935B2, “Methods and compositions for treating migraines using noribogaine” (DemeRx, Inc., priority 2014, dated 2017).
# Entries after “also recorded” stand apart in the source; their conditions may differ.
# Experiments:
# [1] = Pupillary miosis assessed by pupillometry in healthy volunteers; assay type: in vivo, human; conditions: 3-60 mg single oral doses vs placebo, up to 216 hours, p>0.9
# Description: (§1) Pulse oximetry and capnography data were collected continuously using a GE Carescape B650 monitoring system from 2 hours prior to dosing and until six hours after dosing, and thereafter at 12, 24, 48 and 72 hours post-dosing. Additional oximetry data were collected at 120, 168 and 216 hours. Pupillary miosis was assessed by pupillometry. Dark-adapted pupil diameter was measured in triplicate using a Neuroptics PLR-200 pupillometer under standardized light intensity (<5 lux) pre-dose, and at 2, 4, 6, 12, 24, 48, 72, 96, 120, 168 and 216 hours post-dosing.
# Summary statistics (means, standard deviations, and coefficients of variation) were determined for each dose group for safety laboratory test data, ECG and pharmacokinetic parameters, and pharmacodynamic variables. Categorical variables were analysed using counts and percentages. Dose-proportionality of AUC and Cmax was assessed using linear regression. The effect of dose on pharmacodynamic parameter values over time was assessed using two-factor analysis of variance (ANOVA). Pairwise comparisons (with Tukey-Kramer adjustment) between each dose group to the placebo were conducted at each time point using the least squares estimates obtained from the ANOVA, using SAS Proc Mixed (SAS ver 6.0).
# [2] = Safety and tolerability in healthy volunteers (adverse events, vital signs, ECG); assay type: in vivo, human
# Description: as §1
# Safety and tolerability of noribogaine were tested in the group of volunteers from Example 1. Cold pressor testing was conducted in 1° C. water according to the method of Mitchell et al. (J Pain 5:233-237, 2004) pre-dose, 6, 24, 48, 72 and 216 hours post-dosing. Safety evaluations included clinical monitoring, recording of adverse events (AEs), safety laboratory tests, vital signs, ECG telemetry from −2 h to 6 h after dosing, and 12-lead electrocardiograms (ECGs) up to 216 hours post-dosing.
# [3] = Time to resumption of opioid substitution treatment (OST) in opioid-dependent patients; assay type: in vivo, human
# [4] = Opiate withdrawal scales (COWS, SOWS, OOWS) in opioid-dependent patients; assay type: in vivo, human; conditions: single 120 mg dose, first six hours following dosing
# Description: Patients were evaluated based on the Clinical Opiate Withdrawal Scale (COWS), Subjective Opiate Withdrawal Scale (SOWS), and Objective Opiate Withdrawal Scale (OOWS) scoring systems over the period of time between administration of noribogaine (or placebo) until resumption of OST. These scales are outlined in Guidelines for the Psychosocially Assisted Pharmacological Treatment of Opioid Dependence, World Health Organization, Geneva (2009), Annex 10, which is incorporated herein by reference in its entirety. The scales measure the intensity of withdrawal symptoms, based on clinical, subjective, and objective indicia.
# [5] = Treatment emergent adverse events in opioid-dependent participants (Phase IB)
# [6] = 3 mg dose group, healthy volunteers
# [7] = 10 mg dose group, healthy volunteers
# [8] = 30 mg dose group, healthy volunteers
compound,measurement,setting,value
"CC[C@H]1CC2C[C@H]3c4[nH]c5ccc(O)cc5c4CCN(C2)C13 [Noribogaine, noribogaine]",pupillary constriction (dark-adapted pupil diameter),[1],no evidence of pupillary constriction
same,"Adverse events, Mild",[2]; [6],Dizziness; also recorded: Epistaxis; also recorded: Headache; also recorded: Back pain
same,"Adverse events, Moderate",[2]; [6],Headache
same,number of adverse events reported,[2]; [6],five adverse events were reported by two subjects
same,"Adverse events, Mild",[2]; [7],Headache
same,number of adverse events reported,[2]; [7],one adverse event was reported by single subjects
same,"Adverse events, Mild",[2]; [8],Headache
same,number of adverse events reported,[2]; [8],one adverse event was reported by single subjects
same,"changes in oximetry, capnography, respiratory rate","[2]; 3-60 mg, healthy volunteers","no changes in oximetry or capnography, or changes in respiratory rate"
same,changes in vital signs or safety laboratory tests,"[2]; 3-60 mg, healthy volunteers",no changes in vital signs or safety laboratory tests of note
same,QTcF values >500 msec,"[2]; 3-60 mg, healthy volunteers, ECG up to 216 hours",no QTcF values >500 msec at any time
same,intensity of adverse events,"[2]; all dose groups, healthy volunteers",mild-moderate intensity
same,single increase in QTcF,"[2]; one subject dosed with 10 mg, 24 hours post-dosing",> 60 ms
same,average time to resumption of opioids (OST),[3]; single 120 mg dose,greater than 20 hours
same,average time to resumption of opioids (OST),[3]; single 180 mg dose,"still longer than untreated patients (7 hours, not shown) or those administered 60 mg noribogaine"
same,"withdrawal symptoms (COWS, OOWS, SOWS scores)",[4],fewer withdrawal symptoms than the other patients
same,frequency of headaches,[5]; 60 mg treatment group,frequent
same,frequency of headaches,[5]; 120 mg and 180 mg dose groups,attenuated
same,hallucinatory effects,"[5]; 60-180 mg, opioid-dependent participants",no hallucinatory effects
same,Treatment Emergent AE: Catheter Site Infection,"[5]; single 60 mg dose, N = 6",0
same,Treatment Emergent AE: Catheter Site Pain,"[5]; single 60 mg dose, N = 6",0
same,Treatment Emergent AE: Catheter Site Related Reaction,"[5]; single 60 mg dose, N = 6",0
same,Treatment Emergent AE: Cellulitis,"[5]; single 60 mg dose, N = 6",0
same,Treatment Emergent AE: Diarrhoea,"[5]; single 60 mg dose, N = 6",0
same,Treatment Emergent AE: Dry Mouth,"[5]; single 60 mg dose, N = 6",0
same,Treatment Emergent AE: Ear and Labyrinth Disorders,"[5]; single 60 mg dose, N = 6",0
same,Treatment Emergent AE: Epistaxis,"[5]; single 60 mg dose, N = 6",0
same,Treatment Emergent AE: Euphoric Mood,"[5]; single 60 mg dose, N = 6",0
same,Treatment Emergent AE: General Disorders and Administration Site Conditions,"[5]; single 60 mg dose, N = 6",0
same,Treatment Emergent AE: Hyperaesthesia,"[5]; single 60 mg dose, N = 6",0
same,Treatment Emergent AE: Infections and Infestations,"[5]; single 60 mg dose, N = 6",0
same,Treatment Emergent AE: Limb Discomfort,"[5]; single 60 mg dose, N = 6",0
same,Treatment Emergent AE: Malaise,"[5]; single 60 mg dose, N = 6",0
same,Treatment Emergent AE: Nausea,"[5]; single 60 mg dose, N = 6",0
same,Treatment Emergent AE: Oropharyngeal Pain,"[5]; single 60 mg dose, N = 6",0
same,Treatment Emergent AE: Pseudoparalysis,"[5]; single 60 mg dose, N = 6",0
same,"Treatment Emergent AE: Respiratory, Thoracic and Mediastinal Disorders","[5]; single 60 mg dose, N = 6",0
same,Treatment Emergent AE: Rhinorrhoea,"[5]; single 60 mg dose, N = 6",0
same,Treatment Emergent AE: Skin Discomfort,"[5]; single 60 mg dose, N = 6",0
same,Treatment Emergent AE: Skin Irritation,"[5]; single 60 mg dose, N = 6",0
same,Treatment Emergent AE: Skin and Subcutaneous Tissue Disorders,"[5]; single 60 mg dose, N = 6",0
same,Treatment Emergent AE: Somnoience,"[5]; single 60 mg dose, N = 6",0
same,Treatment Emergent AE: Tinnitus,"[5]; single 60 mg dose, N = 6",0
same,Treatment Emergent AE: Tremor,"[5]; single 60 mg dose, N = 6",0
same,Treatment Emergent AE: Urinary Tract Infection,"[5]; single 60 mg dose, N = 6",0
same,Treatment Emergent AE: Vomiting,"[5]; single 60 mg dose, N = 6",0
same,Treatment Emergent AE: Back Pain,"[5]; single 120 mg dose, N = 6",0
same,Treatment Emergent AE: Catheter Site Infection,"[5]; single 120 mg dose, N = 6",0
same,Treatment Emergent AE: Catheter Site Related Reaction,"[5]; single 120 mg dose, N = 6",0
same,Treatment Emergent AE: Depressed Mood,"[5]; single 120 mg dose, N = 6",0
same,Treatment Emergent AE: Dry Eye,"[5]; single 120 mg dose, N = 6",0
same,Treatment Emergent AE: Dyspepsia,"[5]; single 120 mg dose, N = 6",0
same,Treatment Emergent AE: Euphoric Mood,"[5]; single 120 mg dose, N = 6",0
same,Treatment Emergent AE: Limb Discomfort,"[5]; single 120 mg dose, N = 6",0
same,Treatment Emergent AE: Malaise,"[5]; single 120 mg dose, N = 6",0
same,Treatment Emergent AE: Musculoskeletal and Connective Tissue Disorders,"[5]; single 120 mg dose, N = 6",0
same,Treatment Emergent AE: Psychiatric Disorders,"[5]; single 120 mg dose, N = 6",0
same,Treatment Emergent AE: Somnoience,"[5]; single 120 mg dose, N = 6",0
same,Treatment Emergent AE: Urinary Tract Infection,"[5]; single 120 mg dose, N = 6",0
same,Treatment Emergent AE: Catheter Site Infection,"[5]; single 180 mg dose, N = 6",0
same,Treatment Emergent AE: Catheter Site Pain,"[5]; single 180 mg dose, N = 6",0
same,Treatment Emergent AE: Depressed Mood,"[5]; single 180 mg dose, N = 6",0
same,Treatment Emergent AE: Diarrhoea,"[5]; single 180 mg dose, N = 6",0
same,Treatment Emergent AE: Dry Eye,"[5]; single 180 mg dose, N = 6",0
same,Treatment Emergent AE: Dyspepsia,"[5]; single 180 mg dose, N = 6",0
same,Treatment Emergent AE: Ear and Labyrinth Disorders,"[5]; single 180 mg dose, N = 6",0
same,Treatment Emergent AE: Epistaxis,"[5]; single 180 mg dose, N = 6",0
same,Treatment Emergent AE: Euphoric Mood,"[5]; single 180 mg dose, N = 6",0
same,Treatment Emergent AE: Hyperaesthesia,"[5]; single 180 mg dose, N = 6",0
same,Treatment Emergent AE: Malaise,"[5]; single 180 mg dose, N = 6",0
same,Treatment Emergent AE: Oropharyngeal Pain,"[5]; single 180 mg dose, N = 6",0
same,Treatment Emergent AE: Pseudoparalysis,"[5]; single 180 mg dose, N = 6",0
same,Treatment Emergent AE: Psychiatric Disorders,"[5]; single 180 mg dose, N = 6",0
same,"Treatment Emergent AE: Respiratory, Thoracic and Mediastinal Disorders","[5]; single 180 mg dose, N = 6",0
same,Treatment Emergent AE: Rhinorrhoea,"[5]; single 180 mg dose, N = 6",0
same,Treatment Emergent AE: Skin Discomfort,"[5]; single 180 mg dose, N = 6",0
same,Treatment Emergent AE: Skin Irritation,"[5]; single 180 mg dose, N = 6",0
same,Treatment Emergent AE: Skin and Subcutaneous Tissue Disorders,"[5]; single 180 mg dose, N = 6",0
same,Treatment Emergent AE: Somnoience,"[5]; single 180 mg dose, N = 6",0
same,Treatment Emergent AE: Tinnitus,"[5]; single 180 mg dose, N = 6",0
same,Treatment Emergent AE: Tremor,"[5]; single 180 mg dose, N = 6",0
